Measured values taken from US20020106354A1, “CELLULAR AND ANIMAL MODELS FOR DISEASES ASSOCIATED WITH ALTERED MITOCHONDRIAL FUNCTION” (priority 1998, published 2002).

Key:
INS-1 cells [1] = test: Quantification of mitochondrial DNA by slot blotting (COX-I probe) in INS-1 cells treated with nucleoside analogs; type: cell-based, rat; conditions: for depleted for mtDNA / depleted for mitochondrial DNA / Relative [mtDNA] After Contact w/ Antiviral / effect on mtDNA content: seven days; for effect on mtDNA content: varying concentrations
Experimental: Media were replenished every two days. Cells were harvested at periodic intervals and assayed for insulin secretion and mtDNA content. INS-1 cells, or ρ^[…] cells generated using ddC as described above, were seeded into 12-well plates containing RPMI media supplemented as described above at 0.4×10^6 cells/well and cultured at 37° C., 5% CO2 for 2 days. Cells (0.7×10^6 cells/well) were rinsed with PBS and total cellular DNA was extracted using DNAzol (Molecular Research Center, Inc., Cincinnati, Ohio) according to the manufacturer's instructions. One hundred ng DNA from each cell preparation was slot-blotted onto a Zeta-Probe membrane (Bio-Rad, Hercules, Calif.) and crosslinked at 125 joules using a BioRad GS GeneLinker irradiation/energy source. The membranes were rinsed in hybridization buffer (5× SSC, 0.1% N-laurylsarcosine, 0.02% SDS, 1% blocking solution, Boehringer Mannheim, Indianapolis, Ind.) and hybridized overnight in the same buffer at 42° C. with the [^32P]-labeled rat COX I probe. Following hybridization, membranes were washed twice with 2X SSC/0.1% SDS and twice with 0.1× SSC/0.1% SDS and exposed to X-ray film. Mitochondrial DNA was quantified by densitometric scanning of the resulting autoradiographs. Time Course of Effects of ddC on Mitochondrial DNA Content of INS-1 Cells INS-1 cells were grown in RPMI medium supplemented with 10% fetal calf serum, 2 mM […], 100 U/ml penicillin, 100 μg/ml streptomycin, 10 mM HEPES, 1 mM sodium pyruvate, 50 μg/ml uridine, and 50 μM β-mercaptoethanol, in the presence of 10 μM ddC. After various times in culture, cells were harvested for analysis of mtDNA content. Total cellular DNA was extracted from approximately one million cells using DNAzol (Molecular Research Center, Inc. Cincinnati, Ohio) essentially according to the manufacturer's instructions. One hundred ng total DNA was analyzed by slot-blot on Zeta-Probe membranes (Bio-Rad, Hercules, Calif.). The membranes were hybridized with a [^32P]-labeled probe complementary to the mitochondrial gene encoding COXI. Autoradiograms were prepared, and the relative content of mitochondrial DNA (mtDNA) estimated by the relative densities of the autoradiographic bands.

patients = conditions: cited from earlier work
INS-1 cells [2] = test: Insulin secretion by mtDNA-depleted INS-1 cells (insulin radioimmunoassay); type: cell-based, rat; conditions: 10 μM for 40 days
Experimental: INS-1 cells, or ρ^[…] cells generated using ddC as described above, were seeded into 12-well plates containing RPMI media supplemented as described at 0.5×10^6 cells/well and cultured at 37° C., 5% CO2 for 2 days. Cells (0.7×10^6 cells/well were rinsed with glucose-free KRH buffer (134 mM NaCl, 4.7 mM KCl, 1.2 mM KH2PO4, 1.2 mM MgSO4, 1.0 mM CaCl2, 10 mM HEPES, 10 mM NaHCO3, 0.5% BSA), then incubated in the same buffer for 1 hr at 37° C. in a humidified 5% Co2/95% air atmosphere. Fresh KRH buffer containing 0.5 mM isobutylmethyl xanthine and the following secretagogues was added: 5 mM glucose, 10 mM glucose, 20 mM glucose, 5 mM KCl or 20 mM KCl. After an additional 1 hr at 37° C., 5% CO2 the culture supernatants were collected. Insulin concentrations in the supernatants were measured and normalized to cell number using an insulin-specific radioimmunoassay kit (ICN Biochemicals, Irvine, CA) according to the manufacturer's instructions.

INS-1 cells [3] = test: Lactate production in ddC-treated INS-1 cells; type: cell-based, rat
Experimental: Lactate production was measured in ddC-treated and control INS-1 cells at approximately day 40 and day 50 of ddC incubation. Cells were grown in 35 mm dishes. Media were replenished 16 hr before assay with normal culture media containing various amounts of glucose. The media were then collected, and lactate measured using a commercially available kit, in which lactate dehydrogenase is used to produce a fluorescent compound (Sigma, St. Louis, Mo.), essentially according to the manufacturer's instructions.

INS-1 cells [4] = test: Oxygen consumption (Clark oxygen electrode) before and after KCN; type: cell-based, rat; conditions: ddC for >50 days (Rho revertants), before and after 1 uM KCN (FIG. 4)
Experimental: Neurochem. 67:1897-1907, 1996) before and after the addition of 1 uM KCN. KCN inhibits mitochondrial respiration, primarily via its effect on Complex IV activity.

SMILES: Cc1cn([C@H]2C[C@H](N=[N+]=[N-])[C@@H](CO)O2)c(=O)[nH]c1=O [AZT, 3′-azido-3′ deoxythymidine]
- depleted for mtDNA (INS-1 cells [1]; 5 μM): no depletion of mtDNA
- depleted for mtDNA (INS-1 cells [1]; 10 μM): 4%
- depleted for mtDNA (INS-1 cells [1]; 50 μM): 15%
- depleted for mitochondrial DNA (INS-1 cells [1]; 100 μM): no depletion of mtDNA

SMILES: O=c1[nH]c(=O)n([C@@H]2O[C@H](CO)[C@@H](O)[C@@H]2F)cc1I [FIAU, fialuridine]
- Relative [mtDNA] After Contact w/ Antiviral (INS-1 cells [1]; 10 μM, INS-1 cells): 0.66
- depleted for mitochondrial DNA (INS-1 cells [1]; 100 μM): 61%
- Relative [mtDNA] After Contact w/ Antiviral (INS-1 cells [1]; 100 μM, INS-1 cells): 0.39

SMILES: Cc1cn([C@H]2C=C[C@@H](CO)O2)c(=O)[nH]c1=O [d4T, 2′3′-didehydro-3-deoxythymidine]
- Relative [mtDNA] After Contact w/ Antiviral (INS-1 cells [1]; 10 μM, INS-1 cells): 0.98
- Relative [mtDNA] After Contact w/ Antiviral (INS-1 cells [1]; 50 μM, INS-1 cells): 0.56
- depleted for mitochondrial DNA (INS-1 cells [1]; 100 μM): 95%
- Relative [mtDNA] After Contact w/ Antiviral (INS-1 cells [1]; 100 μM, INS-1 cells): 0.05
- effect on mtDNA content (INS-1 cells [1]; INS-1 cells (FIG. 1)): decreased mtDNA content in a dose-dependent fashion
- side-effect of treatment: peripheral neuropathy (patients): axonal peripheral neuropathy

SMILES: Nc1ccn([C@H]2CC[C@@H](CO)O2)c(=O)n1 [ddC, 2′3′-dideoxycytidine]
- Relative [mtDNA] After Contact w/ Antiviral (INS-1 cells [1]; 5 μM, INS-1 cells): 0.86
- Relative mtDNA content per million cells (INS-1 cells [1]; 10 μM ddC, day 3): 0.46
- Relative mtDNA content per million cells (INS-1 cells [1]; 10 μM ddC, day 7): 0.41
- Relative mtDNA content per million cells (INS-1 cells [1]; 10 μM ddC, day 14): 0.055
- Relative mtDNA content per million cells (INS-1 cells [1]; 10 μM ddC, day 21): 0.020
- Relative mtDNA content per million cells (INS-1 cells [1]; 10 μM ddC, day 40): 0.0021
- Relative mtDNA content per million cells (INS-1 cells [1]; 10 μM ddC, day 60): 0.550
- Relative mtDNA content per million cells (INS-1 cells [1]; 10 μM ddC, day 80): 0.81
- mtDNA content relative to pretreatment (day 0) (INS-1 cells [1]; 10 μM ddC, day 80, about one million cells): about 80%
- mtDNA detectability (INS-1 cells [1]; 10 μM, 40 days): undetectable
- Relative [mtDNA] After Contact w/ Antiviral (INS-1 cells [1]; 10 μM, INS-1 cells): 0.86
- mtDNA detectability (INS-1 cells [1]; 25 μM, after 21 days, INS-1 cells): undetectable
- Relative [mtDNA] After Contact w/ Antiviral (INS-1 cells [1]; 50 μM, INS-1 cells): 0.41
- depleted for mitochondrial DNA (INS-1 cells [1]; 100 μM): 69%
- Relative [mtDNA] After Contact w/ Antiviral (INS-1 cells [1]; 100 μM, INS-1 cells): 0.31
- IC50 (INS-1 cells [1]; Rattus norvegicus, INS1, 168 h, seven days incubation, INS-1 cells (FIG. 1), read-out: IC50 for decrease of mtDNA content): ~50 µM
- effect on mtDNA content (INS-1 cells [1]; INS-1 cells (FIG. 1)): decreased mtDNA content in a dose-dependent fashion
- KCl-mediated insulin secretion (INS-1 cells [2]): remained intact
- glucose stimulated insulin secretion (INS-1 cells [2]; 5, 10, 20 mM glucose (FIG. 3)): no glucose stimulated insulin secretion was observed
- lactate produced relative to control (untreated) cells (INS-1 cells [3]; 40-day ddC-treated cells, 25 or 50 mM glucose): > 5 times
- lactate produced compared with control (untreated) cells (INS-1 cells [3]; after more than about 50 days ddC): comparable amounts of lactate
- mitochondrial-mediated respiration (oxygen consumption) (INS-1 cells [4]): mitochondrial-mediated respiration (Complex IV activity) was present
- side-effect of treatment: peripheral neuropathy (patients): axonal peripheral neuropathy
- side-effect of treatment: neuropathy (patients; particularly diabetics): toxic and painful neuropathy

SMILES: O=c1[nH]cnc2c1ncn2[C@H]1CC[C@@H](CO)O1 [ddI, 2′3′-dideoxyinosine]
- depleted for mitochondrial DNA (INS-1 cells [1]; 100 μM): 80%
- effect on mtDNA content (INS-1 cells [1]; INS-1 cells (FIG. 1)): decreased mtDNA content in a dose-dependent fashion
